The target in the test is 5-hydroxytryptamine receptor 6 (Homo sapiens, UniProt P50406). Kind of test: Displacement of [3H]-lysergic acid diethylamine from human recombinant 5-HT6 receptor.
Sequence of 5-hydroxytryptamine receptor 6 (P50406 whole entry): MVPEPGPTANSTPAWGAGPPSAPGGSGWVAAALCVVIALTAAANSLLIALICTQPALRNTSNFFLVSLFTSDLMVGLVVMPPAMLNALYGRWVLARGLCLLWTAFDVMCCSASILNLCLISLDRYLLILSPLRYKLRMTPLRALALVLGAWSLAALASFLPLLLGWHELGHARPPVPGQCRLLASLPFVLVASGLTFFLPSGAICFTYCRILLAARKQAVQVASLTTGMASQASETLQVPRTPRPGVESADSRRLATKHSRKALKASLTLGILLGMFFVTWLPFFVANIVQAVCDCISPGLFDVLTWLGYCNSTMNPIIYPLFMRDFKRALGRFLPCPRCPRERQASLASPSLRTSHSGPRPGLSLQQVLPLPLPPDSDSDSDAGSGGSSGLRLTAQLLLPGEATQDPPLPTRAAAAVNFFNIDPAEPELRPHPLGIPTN
Consider `COCc1cccc(NS(=O)(=O)c2ccc(C)c(N3CCNCC3)c2)c1`, for which the Ki was < 10 nM. Take `COCc1cccc(NS(=O)(=O)c2ccc(OC)c(N3CCNCC3)c2)c1`: the Ki was < 10 nM. As to `CCOc1ccc(S(=O)(=O)Nc2cccc(COC)c2)cc1N1CCNCC1`, the Ki was < 10 nM. Then `COCc1ccccc1NS(=O)(=O)c1ccc(OC)c(N2CCNCC2)c1`, with < 10 nM. On to `CCOCc1cccc(NS(=O)(=O)c2ccc(OC)c(N3CCNCC3)c2)c1`, for which the inhibitory constant (Ki) was < 10 nM.

`COc1ccc(S(=O)(=O)Nc2cccc(COCC(F)(F)F)c2)cc1N1CCNCC1`: the Ki was < 10 nM. Then `COCc1cccc(NS(=O)(=O)c2ccc(OC)c(N3CCN(C)CC3)c2)c1`, with < 10 nM; and `COc1ccc(S(=O)(=O)Nc2cccc(C(C)OC)c2)cc1N1CCNCC1` (stereo not drawn), with < 20 nM. Then `COCc1cccc(NS(=O)(=O)c2ccc(OC)c(N3CCCNCC3)c2)c1`, with < 20 nM; and `COCc1cccc(N(C)S(=O)(=O)c2ccc(OC)c(N3CCNCC3)c2)c1`, with < 100 nM. The figure for `COCc1ccc(NS(=O)(=O)c2ccc(OC)c(N3CCNCC3)c2)cc1` is < 100 nM; for `COCc1ccccc1NS(=O)(=O)c1ccc(C)c(N2CCNCC2)c1` it is < 100 nM; for `CCOc1ccc(S(=O)(=O)Nc2ccccc2COC)cc1N1CCNCC1` it is < 10 nM. As to `CCOc1ccc(S(=O)(=O)Nc2ccccc2COC)cc1N1CCN(C)CC1`, the Ki is < 10 nM. Then `CCOc1ccc(S(=O)(=O)Nc2cccc(COC)c2)cc1N1CCN(C)CC1`, with < 10 nM; and `COCc1cccc(NS(=O)(=O)c2ccc(C)c(N3CCN(C)CC3)c2)c1`, with < 100 nM. For `COCc1ccccc1NS(=O)(=O)c1ccc(OC)c(N2CCN(C)CC2)c1`, the Ki is < 10 nM. Then `COCc1ccccc1NS(=O)(=O)c1ccc(C)c(N2CCN(C)CC2)c1`, with < 100 nM.
